Legend:
[1] = Liver Microsome Stability Assay (mouse); conditions: mouse liver microsomes, with NADPH, 1.0 uM compound
Procedure: (§1) Stability of a compound was assessed in the presence of liver microsomes from various sources—mouse, rat, monkey and human liver microsomes. 1.0 uM compound, 0.4% DMSO in 0.1 M Potassium Phosphate with 1.0 mg/mL liver microsomes, were incubated at 37° C. with or without 1 mM NADPH. The samples were quenched at 0, and 30 minutes.

[2] = test system: IL-2-FL/Gaussia Luciferase; test: Dox Induced IL2-FL-Gluc Assay; type: cell-based; conditions: for IC50: 24 hr Dox induction, 293FRT/TO cells, read-out: 24 hr Dox Inducible IL2FLGluc 293FRT/TO: Mean IC50; for 24 hr Dox Inducible IL2FLGluc 293FRT/TO: IL2/PD1: ratio of IL2FLGluc IC50 to PD1ssGluc IC50
Outline: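 Flp-In 293 T-REx cells stably carrying doxycycline-inducible full-length IL-2 (aa 1-153) fused at its C-terminus to Gaussia luciferase, selected with hygromycin and blasticidin. Cells were plated the day before, then treated with compounds in DMSO/media containing doxycycline at 37° C, 5% CO2.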

[3] = test system: TNFα-FL/Gaussia Luciferase; test: Dox Induced TNFα-FL-Gluc Assay; type: cell-based; conditions: for IC50: 24 hr Dox induction, 293FRT/TO cells, read-out: 24 hr Dox Inducible TNFaFLGluc 293FRT/TO: Mean IC50; for 24 hr Dox Inducible TNFaFLGluc 293FRT/TO: TNF/PD1: ratio of TNFaFLGluc IC50 to PD1ssGluc IC50
Outline: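 Flp-In 293 T-REx cells stably expressing full-length TNFα (aa 1-233) fused at its C-terminus to Gaussia luciferase under tetracycline-regulated control were plated the day before assay. Compound dilutions in DMSO/media containing doxycycline were added and incubated at 37 °C, 5% CO2. Unspecified stereochemistry denotes stereoisomer mixtures.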

[4] = Liver Microsome Stability Assay (human); conditions: human liver microsomes, with NADPH, 1.0 uM compound
Procedure: as §1

[5] = test system: multiple myeloma cell line U266B1; test: U266 Cell Viability Assay; type: cell-based, human; conditions: Homo sapiens, U-266, 48 h, U266B1 cells, Celltiter-Glo
Outline: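 Cells grown in RPMI 1640 with 10% FBS, 2 mM glutamine and penicillin/streptomycin were exposed to compound dilutions in DMSO/media for 48 hours at 37° C., 5% CO2. Viability was read by CellTiter-Glo luminescence. Undefined stereocentres mean data for stereoisomer mixtures.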

[6] = test system: PD1-ss+10aa/Gaussia Luciferase; test: Dox-Induced PD1-ss-Gluc Assay; type: cell-based; conditions: 24 hr Dox induction; 293FRT/TO cells; read-out: 24 hr Dox Inducible PD1ssGluc 293FRT/TO: Mean IC50
Outline: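 Gaussia luciferase fused downstream of the PD1 signal peptide plus 10 residues was expressed on doxycycline induction in stably transfected Flp-In 293 T-REx cells. Compounds were added with doxycycline and incubated at 37 °C, 5% CO2.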

[7] = test system: HER3-ss+4aa/Gaussia Luciferase; test: Dox-Induced Her3-ss-Gluc Assay; type: cell-based; conditions: 24 hr Dox induction; 293FRT/TO cells; read-out: 24 hr Dox Inducible Her3(ss + 4)Gluc 293FRT/TO: Mean IC50
Outline: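 Stable Flp-In 293 T-REx line expressing Gaussia luciferase fused to the HER3 signal sequence plus 4 amino acids under tetracycline-regulated (T-REx) control. Cells plated the day before, then treated with compound dilutions in DMSO/media containing doxycycline and incubated at 37° C., 5% CO2.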

[8] = Liver Microsome Stability Assay (rat); conditions: rat liver microsomes, with NADPH, 1.0 uM compound
Procedure: as §1

[9] = Liver Microsome Stability Assay (monkey); conditions: monkey liver microsomes, with NADPH, 1.0 uM compound
Procedure: as §1

[10] = test system: multiple myeloma cell line NCI-H929; test: H929 Cell Viability Assay; type: cell-based, human; conditions: Homo sapiens, NCI-H929, 48 h, NCI-H929 cells, Celltiter-Glo
Outline: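 NCI-H929 cells, resuspended in RPMI 1640 with 10% FBS and 2 mM glutamine, were treated with compound dilutions in DMSO/media and incubated 48 hours at 37° C, 5% CO2. Viability was read by CellTiter-Glo luminescence. Compounds drawn without stereochemistry were tested as stereoisomer mixtures.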

| SMILES | Liver Microsome Stability (Multiple Species): Mouse - % Remaining after 30 min w/NADPH [1] | IC50 [2] | 24 hr Dox Inducible IL2FLGluc 293FRT/TO: IL2/PD1 [2] | IC50 [3] | 24 hr Dox Inducible TNFaFLGluc 293FRT/TO: TNF/PD1 [3] | Liver Microsome Stability (Multiple Species): Human - % Remaining after 30 min w/NADPH [4] | EC50 [5] | IC50 [6] | IC50 [7] | Liver Microsome Stability (Multiple Species): Rat - % Remaining after 30 min w/NADPH [8] | Liver Microsome Stability (Multiple Species): Monkey - % Remaining after 30 min w/NADPH [9] | EC50 [10] |
| --- | --- | --- | --- | --- | --- | --- | --- | --- | --- | --- | --- | --- |
| O=C(Nc1nc([C@H]2CCCN2c2ccc(OC3CCN(C(=O)CO)CC3)cc2)cs1)c1cccn1Cc1ccnc(F)c1 [Compound A139, (R)-1-((2-fluoropyridin-4-yl)methyl)-N-(4-(1-(4-((1-(2-hydroxyacetyl)piperidin-4-yl)oxy)phenyl)pyrrolidin-2-yl)thiazol-2-yl)-1H-pyrrole-2-carboxamide] | 26% | 58.3 nM | 2.9 | 460 nM | 22.6 | 30.1% | > 25000 nM | 20.3 nM | 37.1 nM | 41.9% | 10.7% | 687 nM |
| CC(=O)N1CCC(Oc2ccc(N3CCC[C@@H]3c3csc(NC(=O)c4cccn4Cc4ccnc(F)c4)n3)cc2Cl)CC1 [Compound A140, (R)-N-(4-(1-(4-((1-acetylpiperidin-4-yl)oxy)-3-chlorophenyl)pyrrolidin-2-yl)thiazol-2-yl)-1-((2-fluoropyridin-4-yl)methyl)-1H-pyrrole-2-carboxamide] | 16.1% | 33.7 nM | 2.4 | 361 nM | 25.9 | 14% | > 25000 nM | 13.9 nM | 9.88 nM | 12.8% | 8.54% | 418 nM |
| O=C(CO)Nc1ccc(N2CCC[C@@H]2c2csc(NC(=O)c3cccn3Cc3ccnc(F)c3)n2)cc1 [Compound A141, (R)-1-((2-fluoropyridin-4-yl)methyl)-N-(4-(1-(4-(2-hydroxyacetamido)phenyl)pyrrolidin-2-yl)thiazol-2-yl)-1H-pyrrole-2-carboxamide] | 0.97% | 54 nM | 2 | 497 nM | 18 | 2.77% | > 25000 nM | 27.5 nM | 43.9 nM | 2.9% | 0.94% | 921 nM |
| O=C(Nc1nc([C@@H]2CCCN2c2ccc(C(F)(F)F)cc2)cs1)c1cccn1Cc1ccnc(F)c1 [Compound A142, (S)-1-((2-fluoropyridin-4-yl)methyl)-N-(4-(1-(4-(trifluoromethyl)phenyl)pyrrolidin-2-yl)thiazol-2-yl)-1H-pyrrole-2-carboxamide] | 60.5% | 963 nM | 3 | 6870 nM | 21.3 | 20.9% | > 25000 nM | 323 nM | 660 nM | 59.4% | 29.6% | 16300 nM |
| CC(=O)N1CCC(Oc2ccc(N3CCC[C@@H]3c3csc(NC(=O)c4cccn4Cc4ccnc(F)c4)n3)c(Cl)c2)CC1 [Compound A143, (R)-N-(4-(1-(4-((1-acetylpiperidin-4-yl)oxy)-2-chlorophenyl)pyrrolidin-2-yl)thiazol-2-yl)-1-((2-fluoropyridin-4-yl)methyl)-1H-pyrrole-2-carboxamide] | 0.06% | 31.2 nM | 0.6 | 209 nM | 4.03 | 0.16% | 11900 nM | 51.9 nM | 64.8 nM | 6.14% | 0.01% | 1010 nM |
| COC(=O)Nc1ccc(N2CCC[C@@H]2c2csc(NC(=O)c3cccn3Cc3ccnc(F)c3)n2)cc1 [Compound A144, methyl (R)-(4-(2-(2-(1-((2-fluoropyridin-4-yl)methyl)-1H-pyrrole-2-carboxamido)thiazol-4-yl)pyrrolidin-1-yl)phenyl)carbamate] | 20.2% | 1.33 nM | 3.7 | 5.9 nM | 16.3 | 36.4% | > 25000 nM | 0.36 nM | 0.81 nM | 34% | 10.7% | 15.9 nM |
| CCOC(=O)Nc1ccc(N2CCC[C@@H]2c2csc(NC(=O)c3cccn3Cc3ccnc(F)c3)n2)cc1 [Compound A145, ethyl (R)-(4-(2-(2-(1-((2-fluoropyridin-4-yl)methyl)-1H-pyrrole-2-carboxamido)thiazol-4-yl)pyrrolidin-1-yl)phenyl)carbamate] | 25.1% | 1.11 nM | 3.6 | 7.51 nM | 24 | 41.5% | > 25000 nM | 0.31 nM | 0.83 nM | 46% | 18% | 13.5 nM |
| CC(C)OC(=O)Nc1ccc(N2CCC[C@@H]2c2csc(NC(=O)c3cccn3Cc3ccnc(F)c3)n2)cc1 [Compound A146, isopropyl (R)-(4-(2-(2-(1-((2-fluoropyridin-4-yl)methyl)-1H-pyrrole-2-carboxamido)thiazol-4-yl)pyrrolidin-1-yl)phenyl)carbamate] | 34.8% | 2.56 nM | 2.6 | 20.6 nM | 21.1 | 49.5% | > 25000 nM | 0.97 nM | 2.47 nM | 54.1% | 21.6% | 39.3 nM |
| CC(=O)N1CCC(Nc2ccc(N3CCC[C@@H]3c3csc(NC(=O)c4cccn4Cc4ccnc(F)c4)n3)cc2)CC1 [Compound A147, (R)-N-(4-(1-(4-((1-acetylpiperidin-4-yl)amino)phenyl)pyrrolidin-2-yl)thiazol-2-yl)-1-((2-fluoropyridin-4-yl)methyl)-1H-pyrrole-2-carboxamide] | 5.61% | 109 nM | 1.5 | 316 nM | 4.4 | 8.6% | 3480 nM | 71.9 nM | 106 nM | 2.95% | 0.94% | 469 nM |

Source: patent US20230286973A1, “PROTEIN SECRETION INHIBITORS” (KEZAR LIFE SCIENCES, priority 2020, published 2023)
